Data from US20120077677A1, “Use of 4-phenylbutyric acid and/or salts thereof for enhancing stress tolerance in plants” (BAYER CROPSCIENCE AG, priority 2010, published 2012).

What was measured:
[1] = system: BRSNS (Brassica napus); experiment: Drought stress test on potted crop plants, spray application, Brassica napus; assay type: in vivo
Protocol: Seeds of monocotyledonous and dicotyledonous crop plants are placed in sandy loam in wood-fiber pots, covered with soil and cultivated in a greenhouse under good growth conditions. The test plants were treated at the early leaf stage (BBCH10-BBCH13). To ensure uniform water supply before commencement of stress, the potted plants were supplied with the maximum amount of water immediately beforehand by dam irrigation and, after application, transferred in plastic inserts in order to prevent subsequent, excessively rapid drying. The inventive compounds, formulated in the form of wettable powders (WP), wettable granules (WG), suspension concentrates (SC) or emulsion concentrates (EC), were sprayed onto the green parts of the plants as an aqueous suspension at an equivalent water application rate of 600 l/ha with addition of 0.2% wetting agent (agrotin). Substance application was followed immediately by stress treatment of the plants (cold or drought stress). For cold stress treatment, the plants were kept under the following controlled conditions: • “day”: 12 hours with illumination at 8° C. • “night”: 12 hours without illumination at 1° C. Drought stress was induced by gradual drying out under the following conditions: • “day”: 14 hours with illumination at 26° C. • “night”: 10 hours without illumination at 18° C. The duration of the respective stress phases was guided mainly by the state of the untreated, stressed control plants and thus varied from crop to crop. It was ended (by re-irrigating or transfer to a greenhouse with good growth conditions) as soon as irreversible damage was observed on the untreated, stressed control plants. In the case of dicotyledonous crops, for example oilseed rape and soybeans, the duration of the drought stress phase varied between 3 and 5 days, in the case of monocotyledonous crops, for example wheat, barley or corn, between 6 and 10 days. The duration of the cold stress phase varied between 12 and 14 days. […] The intensity of damage was first assessed as a percentage (100%=plants have died, 0%=like control plants). […]

[2] = system: ZEAMX (Zea mays); experiment: Drought stress test on potted crop plants, spray application, Zea mays; assay type: in vivo; settings: dosage 250 g/ha
Protocol: (§1) Seeds of monocotyledonous and dicotyledonous crop plants are placed in sandy loam in wood-fiber pots, covered with soil and cultivated in a greenhouse under good growth conditions. The test plants were treated at the early leaf stage (BBCH10-BBCH13). To ensure uniform water supply before commencement of stress, the potted plants were supplied with the maximum amount of water immediately beforehand by dam irrigation and, after application, transferred in plastic inserts in order to prevent subsequent, excessively rapid drying. The inventive compounds, formulated in the form of wettable powders (WP), wettable granules (WG), suspension concentrates (SC) or emulsion concentrates (EC), were sprayed onto the green parts of the plants as an aqueous suspension at an equivalent water application rate of 600 l/ha with addition of 0.2% wetting agent (agrotin). Substance application was followed immediately by stress treatment of the plants (cold or drought stress). For cold stress treatment, the plants were kept under the following controlled conditions: • “day”: 12 hours with illumination at 8° C. • “night”: 12 hours without illumination at 1° C. […] The intensity of damage was first assessed as a percentage (100%=plants have died, 0%=like control plants). […]

[3] = system: cotton; settings: cited from earlier work
[4] = system: TRZAS (Triticum aestivum); experiment: Drought stress test on potted crop plants, spray application, Triticum aestivum; assay type: in vivo; settings: dosage 25 g/ha
Protocol: as §1

O=C(O)CCCc1ccccc1 [4-phenylbutyric acid]
EF (BRSNS), efficacy = percentage reduction in the intensity of damage ([1]; dosage 25 g/ha): >5%
EF (ZEAMX), efficacy = percentage reduction in the intensity of damage [2]: >5%

O=C([O-])CCCc1ccccc1.[Na+] [Compound I-2, Sodium 4-phenylbutyrate]
EF (BRSNS), efficacy = percentage reduction in the intensity of damage ([1]; dosage 250 g/ha): >5%
plant growth ([3]; application to cottonseeds, hence oil content of the harvested material): increases
translocation of mono- and disaccharides ([3]; cotton, seed dressing): positively influenced
protein content of the leaves ([3]; cottonseed dressing, early growth stages, also enhances the yields): increases
flower formation and the maturing of cotton plants ([3]; cottonseed dressing, hence enhances the yields): enhances

O=C(O)CCCc1ccccc1.OCCN(CCO)CCO [Compound I-22, Tris-N,N,N-(2-hydroxy-1-yl)ammonium 4-phenylbutyrate]
EF (BRSNS), efficacy = percentage reduction in the intensity of damage ([1]; dosage 25 g/ha): >5%
EF (TRZAS), efficacy = percentage reduction in the intensity of damage [4]: >5%
